Measurements from patent US8846639B2, “Oligomeric compounds comprising bicyclic nucleosides and having reduced toxicity” (Isis Pharmaceutical, Inc., priority 2008, dated 2014).
Several values for one entry are separate records, joined by “and”; a condition that tells them apart may be missing. Identical values can stand only once.

What was measured:
PTEN mRNA = PTEN mRNA levels in liver, real-time PCR (Example 14 in vivo study); set-up: species or system mice; conditions: for PTEN mRNA levels (% inhibition): liver, 72 h; for ED50: estimated, Graphpad Prism, dose at which 50% mRNA reduction is observed
Procedure: (§1) Six week old male Balb/c mice (Jackson Laboratory, Bar Harbor, Me.) were administered a single intraperitoneal (i.p) injection with 4′-CH2—O-2′ BNA containing oligomers (392745 and 392063) and 6(S)-4′-CH(CH3)—O-2′ BNA containing oligomers (392749 and 411847) at a does of 3.2, 10, 32, 66 and 100 mg/kg. Oligomers 392063 and 411847 contain LNA nucleosides with methylated pyrimidines, and oligomers 392745 and 392749 contain LNA nucleosides with non-methylated pyrimidines in the wings. All intemucleoside linkages are phosphorothioates, nucleosides not followed by a subscript are βD-2′-deoxyribonucleosides, nucleosides followed by a subscript 1 are 4′-CH2—O-2′ modified bicyclic nucleosides, nucleosides followed by a subscript S are 6(S)-4′-CH(CH3)—O-2′ modified bicyclic nucleosides wherein S indicates the configuration at the 6 carbon atom and ^MeC indicates a 5′-methyl cytosine nucleoside.
Each dose group consisted of four animals. The mice were sacrificed 72 hours following the final administration to determine the PTEN mRNA levels in liver using real-time PCR and RIBOGREEN® RNA quantification reagent (Molecular Probes, Inc. Eugene, Oreg.) according to standard protocols. PTEN mRNA levels were determined relative to total RNA (using Ribogreen), prior to normalization to saline-treated control. Results are listed below as the average % inhibition of mRNA expression for each treatment group, normalized to saline-injected control.
Estimated ED50 concentrations for each oligomers were calculated using Graphpad Prism. ED50 is the dose at which 50% mRNA reducation is observed.

[1] = Liver transaminase (ALT) levels in serum (Example 14); type: in vivo, mice
Procedure: as §1
Liver transaminase levels, alanine aminotranferease (ALT) and aspartate aminotransferase (AST), in serum were also measured relative to saline injected mice. Increases in the transaminase levels can indicate hepatotoxicity. The approximate liver transaminase levels are listed below.

PTEN RNA = PTEN RNA in liver (Example 16 in vivo study); set-up: species or system mice; conditions: for % Reduction PTEN RNA: liver, 72 h, compared to PBS control; for ED50: PTEN RNA in liver
Procedure: Six week old male Balb/c mice (Jackson Laboratory, Bar Harbor, Me.) were administered a single intraperitoneal (i.p) injection of oligomers as set forth in the table below.
(§2) Mice were divided into 17 groups, with 4 mice in each group. The mice of 16 groups received a single dose, administered i.p., of one of the above oligomeric compounds at a dose of 100, 32, 10, or 3.2 mg/kg. The final group was dosed with phosphate buffered saline (PBS) as a control. The mice were sacrificed 72 hours after administration. Antisense activity was determined by measuring PTEN RNA in liver and is expressed as % reduction compared to PBS control mice.

[2] = Serum ALT, individual animals (Example 16); type: in vivo, mice; conditions: four animals
Procedure: as §2
Toxicity was assessed by measuring alanine aminotranferease (ALT) in serum.

[3] = Body weight at sacrifice relative to pre-dose (Example 16); type: in vivo, mice; conditions: 72 h, PBS = 102
Procedure: as §2
Body weight was measured before treatment and again at sacrifice 72 hours after treatment.

[4] = Spleen weight as a measure of inflammatory response (Example 16); type: in vivo, mice; conditions: for spleen weight, % Control: relative to PBS control
Procedure: as §2
Spleens were weighed as a measure of inflammatory response.

Substance | PTEN mRNA levels (% inhibition) (PTEN mRNA; 3.2 mg/kg single i.p.) [%] | PTEN mRNA levels (% inhibition) (PTEN mRNA; 10 mg/kg single i.p.) [%] | PTEN mRNA levels (% inhibition) (PTEN mRNA; 32 mg/kg single i.p.) [%] | PTEN mRNA levels (% inhibition) (PTEN mRNA; 66 mg/kg single i.p.) [%] | PTEN mRNA levels (% inhibition) (PTEN mRNA; 100 mg/kg single i.p.) [%] | ED50 (PTEN mRNA) [mg/kg] | ALT levels ([1]; 3.2 mg/kg, serum, saline = 24) [IU/L] | ALT levels ([1]; 10 mg/kg, serum, saline = 24) [IU/L] | ALT levels ([1]; 32 mg/kg, serum, saline = 24) [IU/L] | ALT levels ([1]; 66 mg/kg, serum, saline = 24) [IU/L] | ALT levels ([1]; 100 mg/kg, serum, saline = 24) [IU/L] | % Reduction PTEN RNA (PTEN RNA; 3.2 mg/kg single i.p.) [%] | % Reduction PTEN RNA (PTEN RNA; 10 mg/kg single i.p.) [%] | % Reduction PTEN RNA (PTEN RNA; 32 mg/kg single i.p.) [%] | % Reduction PTEN RNA (PTEN RNA; 100 mg/kg single i.p.) [%] | ED50 (PTEN RNA) [mg/kg] | ALT levels - Individual animals ([2]; 3.2 mg/kg) | ALT levels - Individual animals ([2]; 10 mg/kg) | ALT levels - Individual animals ([2]; 32 mg/kg) | ALT levels - Individual animals ([2]; 100 mg/kg) | further results
^MeCSTSTAGCACTGGC^MeCSTS [ISIS 411847] | 0 | 32 | 87 | 84 | 92 | 12 | 26 | 27 | 16 | 279 | 2816 | – | – | – | – | – | – | – | – | – | ALT level decrease as compared to 392063 treatment ([1]; dose not stated): about 5 fold
Cjs Uos Tds Ads Gds Cds Ads Cds Tds Gds Gds Cds Cjs Uj [ISIS 443393] | – | – | – | – | – | – | – | – | – | – | – | 10 | 35 | 64 | 91 | 16.2 | 19 IU/L and 36 IU/L and 83 IU/L and 20 IU/L | 26 IU/L and 33 IU/L and 30 IU/L and 29 IU/L | 21 IU/L and 24 IU/L and 53 IU/L (2×) | 16 IU/L and 22 IU/L and 42 IU/L and 23 IU/L | % pre-dose wt ([3]; 3.2 mg/kg): 101%; % pre-dose wt ([3]; 10 mg/kg): 104%; % pre-dose wt ([3]; 32 mg/kg): 99%; % pre-dose wt ([3]; 100 mg/kg): 98%; spleen weight, % Control ([4]; 3.2 mg/kg): 89%; spleen weight, % Control ([4]; 10 mg/kg): 96%; spleen weight, % Control ([4]; 32 mg/kg): 110%; spleen weight, % Control ([4]; 100 mg/kg): 96%
^mCxs Txs Tds Ads Gds Cds Ads Cds Tds Gds Gds Cds ^mCxs Tx [ISIS 445545] | – | – | – | – | – | – | – | – | – | – | – | 21 | 55 | 87 | 92 | 7.7 | 20 IU/L and 34 IU/L (2×) and 31 IU/L | 79 IU/L and 19 IU/L and 28 IU/L and 18 IU/L | 22 IU/L and 45 IU/L and 24 IU/L and 47 IU/L | 102 IU/L and 135 IU/L and 277 IU/L and 85 IU/L | % pre-dose wt ([3]; 3.2 mg/kg): 100%; % pre-dose wt ([3]; 10 mg/kg): 102%; % pre-dose wt ([3]; 32 mg/kg): 101%; % pre-dose wt ([3]; 100 mg/kg): 102%; spleen weight, % Control ([4]; 3.2 mg/kg): 100%; spleen weight, % Control ([4]; 10 mg/kg): 99%; spleen weight, % Control ([4]; 32 mg/kg): 134%; spleen weight, % Control ([4]; 100 mg/kg): 139%; spleen weight compared to control and to the non-methylated compound ([4]; mouse, in vivo): increase in spleen weight
CSUSTAGCACTGGCCSUS [ISIS 392749] | 14 | 20 | 81 | 92 | 93 | 15 | 18 | 24 | 14 | 18 | 33 | – | – | – | – | – | – | – | – | – | ALT levels ([1]; all doses): not elevated to a level indicative of hepatotoxicity
